Tests used:
Spodoptera frugiperda = Spodoptera frugiperda test (SPODFR spray treatment); assay type: in vivo; details: 500 g/ha, maize leaf discs, after 7 days
Experimental: Spodoptera frugiperda Test (SPODFR Spray Treatment) Solvent: 78.0 parts by weight of acetone • • 1.5 parts by weight of dimethylformamide Emulsifier: 0.5 part by weight of alkylaryl polyglycol ether To prepare an appropriate active ingredient preparation, 1 part by weight of active ingredient is mixed with the stated amounts of solvent and emulsifier, and the concentrate is diluted with emulsifier-containing water to the desired concentration. Discs of maize leaves (Zea mays) are sprayed with an active ingredient preparation of the desired concentration and, after drying, populated with caterpillars of the armyworm (Spodoptera frugiperda). After 7 days, the efficacy in % is determined. 100% means that all caterpillars have been killed; 0% means that none of the caterpillars have been killed.

Phaedon cochleariae = assay: Phaedon test (PHAECO spray treatment); assay type: in vivo; details: 500 g/ha, Chinese cabbage discs, after 7 days
Experimental: Phaedon Test ([…] Spray Treatment) Solvent: 78.0 parts by weight of acetone • • 1.5 parts by weight of dimethylformamide Emulsifier: 0.5 part by weight of alkylaryl polyglycol ether To prepare an appropriate active ingredient preparation, 1 part by weight of active ingredient is mixed with the stated amounts of solvent and emulsifier, and the concentrate is diluted with emulsifier-containing water to the desired concentration. Discs of Chinese cabbage (Brassica pekinensis) are sprayed with an active ingredient preparation of the desired concentration and, after drying, populated with larvae of the mustard beetle (Phaedon cochleariae). After 7 days, the efficacy in % is determined. 100% means that all beetle larvae have been killed; 0% means that none of the beetle larvae have been killed.

Boophilus microplus = Boophilus microplus test (BOOPMI injection); assay type: in vivo; details: 20 μg/animal, injection into abdomen, after 7 days, laying of fertile eggs
Experimental: Boophilus microplus Test (BOOPMI Injection) Solvent: Dimethyl Sulphoxide To prepare an appropriate active ingredient formulation, 10 mg of active ingredient are mixed with 0.5 ml of solvent and the concentrate is diluted with solvent to the desired concentration. The active ingredient solution is injected into the abdomen (Boophilus microplus), and the animals are transferred into dishes and stored in a climate-controlled room. The efficacy is assessed by laying of fertile eggs. After 7 days, the efficacy in % is determined. 100% means that none of the ticks has laid any fertile eggs.

Ctenocephalides felis = Ctenocephalides felis test (CTECFE); assay type: in vivo; details: 100 ppm in citrated cow's blood, after 2 days
Experimental: Ctenocephalides felis Test ([…]) Solvent: 1 Part by Weight of Dimethyl Sulphoxide For the purpose of preparing an appropriate active ingredient formulation, 10 mg of active ingredient are mixed with 0.5 ml of dimethyl sulphoxide. A portion of the concentrate is diluted with citrated cow's blood and the desired concentration is established. About 20 unfed adult fleas (Ctenocephalides felis) are introduced into a chamber closed at the top and bottom with gauze. A metal cylinder, the bottom of which is closed with Parafilm, is placed onto the chamber. The cylinder contains the blood/active ingredient preparation, which can be imbibed by the fleas through the Parafilm membrane. After 2 days, the kill in % is determined. 100% means that all fleas have been killed; 0% means that none of the fleas have been killed.

Tetranychus urticae = assay: Tetranychus test, OP-resistant (TETRUR spray treatment); assay type: in vivo; details: bean leaf discs, after 6 days
Experimental: Tetranychus Test, OP-resistant (TETRUR Spray Treatment)
Solvent: 78.0 parts by weight of acetone • • 1.5 parts by weight of dimethylformamide
Emulsifier: 0.5 part by weight of alkylaryl polyglycol ether
To prepare an appropriate active ingredient preparation, 1 part by weight of active ingredient is mixed with the stated amounts of solvent and emulsifier, and the concentrate is diluted with emulsifier-containing water to the desired concentration. Discs of bean leaves (Phaseolus vulgaris) infested by all stages of the red spider mite (Tetranychus urticae) are sprayed with an active ingredient preparation of the desired concentration. After 6 days, the efficacy in % is determined. 100% means that all spider mites have been killed; 0% means that none of the spider mites have been killed.

Lucilia cuprina larvae = assay: Lucilia cuprina test (LUCICU); assay type: in vivo; details: 100 ppm, treated horse meat, after 2 days
Experimental: (§1) Lucilia cuprina Test (LUCICU) Solvent: Dimethyl Sulphoxide To prepare an appropriate active ingredient formulation, 10 mg of active ingredient are mixed with 0.5 ml of dimethyl sulphoxide and the concentrate is diluted with water to the desired concentration. Vessels containing horse meat treated with the active ingredient preparation of the desired concentration are populated with about 20 Lucilia cuprina larvae. After 2 days, the kill in % is determined. 100% means that all of the larvae have been killed; 0% means that none of the larvae have been killed.

[1] = logP by reversed-phase HPLC (EEC Directive 79/831 Annex V.A8); assay type: physicochemical; details: * LC-MS, acidic range, pH 2.7, 0.1% aqueous formic acid / acetonitrile
Description: [table] The calibration is effected with unbranched alkan-2-ones (having 3 to 16 carbon atoms) with known log P values (log P values determined on the basis of the retention times by linear interpolation between two successive alkanones).

Musca domestica = Musca domestica test; assay type: in vivo; details: after 2 days
Experimental: as §1, with “Musca domestica” for “Lucilia cuprina”, “Test” for “Test (LUCICU)”, “a sponge” for “horse meat”, “adult Musca domestica.” for “about 20 Lucilia cuprina larvae.”, “flies” for “larvae”

[2] = system: Boophilus microplus females of the SP-resistant Parkhurst strain; assay: Boophilus microplus (dip); assay type: in vivo; details: 100 ppm, after 7 days, laying of fertile eggs
Experimental: Boophilus microplus (dip)
Test animals: adult engorged Boophilus microplus females of the SP-resistant Parkhurst strain
Solvent: Dimethyl Sulphoxide
10 mg of active ingredient are dissolved in 0.5 ml of dimethyl sulphoxide. For the purpose of preparing a suitable formulation, the active ingredient solution is diluted with water to the concentration desired in each case. This active ingredient preparation is pipetted into tubes. 8-10 ticks are transferred into a further tube with holes. The tube is immersed into the active ingredient formulation, and all ticks are completely wetted. After the liquid has run out, the ticks are transferred onto filter discs in plastic dishes and stored in a climate-controlled room. The activity is assessed after 7 days by laying of fertile eggs. Eggs whose fertility is not outwardly visible are stored in glass tubes in a climate-controlled cabinet until the larvae hatch. Efficacy of 100% means that none of the ticks has laid any fertile eggs.

Myzus persicae = assay: Myzus test (MYZUPE spray treatment); assay type: in vivo; details: 500 g/ha, Chinese cabbage discs, after 6 days
Experimental: Myzus test (MYZUPE Spray Treatment) Solvent: 78 parts by weight of acetone • • 1.5 parts by weight of dimethylformamide Emulsifier: 0.5 part by weight of alkylaryl polyglycol ether To prepare an appropriate active ingredient preparation, 1 part by weight of active ingredient is mixed with the stated amounts of solvent and emulsifier, and the concentrate is diluted with emulsifier-containing water to the desired concentration. Discs of Chinese cabbage (Brassica pekinensis) infested by all stages of the green peach aphid (Myzus persicae) are sprayed with an active ingredient preparation of the desired concentration. After 6 days, the efficacy in % is determined. 100% means that all of the aphids have been destroyed; 0% means that none of the aphids have been destroyed.

Row | log P [1] | chromatographic logP ([1]; reversed-phase HPLC column, read-out: log P) | SMILES | efficacy (Spodoptera frugiperda) [%] | efficacy (Phaedon cochleariae) [%] | efficacy (Boophilus microplus) [%] | efficacy (kill) (Ctenocephalides felis) [%] | efficacy (Tetranychus urticae; 500 g/ha) [%] | efficacy (kill) (Lucilia cuprina larvae) [%] | efficacy (kill) (Musca domestica; 100 ppm) [%] | efficacy [2] [%] | efficacy (Myzus persicae) [%] | efficacy (Tetranychus urticae; 100 g/ha) [%] | efficacy (kill) (Musca domestica; 20 ppm) [%]
1 | 4.58* |  | COc1nccnc1-n1nc(C(F)(F)C(F)(F)F)c(-c2cc(Cl)cc(C(F)(F)F)c2)c1N [Ex. 15] | 100 | 100 | 100 | 95 | 100 | 100 | 95 | 100 | 100 |  | 
2 | 4.23* |  | COc1nccnc1-n1nc(C(F)(F)C(F)(F)F)c(-c2cc(F)cc(C(F)(F)F)c2)c1N [Ex. 21] | 100 | 100 | 100 |  | 100 | 100 | 100 |  | 100 |  | 
3 | 3.98* |  | COc1nccnc1-n1nc(C(F)(F)C(F)(F)OC)c(-c2cc(Cl)cc(C(F)(F)F)c2)c1N [Ex. 47] | 100 | 100 | 100 | 100 | 100 | 100 | 80 | 100 | 80 |  | 
4 | 4.24* |  | COc1nccnc1-n1nc(C(F)(F)Cl)c(-c2cc(Cl)cc(C(F)(F)F)c2)c1N [Ex. 17] | 100 | 100 | 100 | 100 | 100 | 100 | 100 | 100 | 100 |  | 

Further lines, the molecule ahead of its results:

Row | SMILES | log P [1] | chromatographic logP ([1]; reversed-phase HPLC column, read-out: log P) | efficacy (Spodoptera frugiperda) [%] | efficacy (Phaedon cochleariae) [%] | efficacy (Boophilus microplus) [%] | efficacy (kill) (Ctenocephalides felis) [%] | efficacy (Tetranychus urticae; 500 g/ha) [%] | efficacy (kill) (Lucilia cuprina larvae) [%] | efficacy (kill) (Musca domestica; 100 ppm) [%] | efficacy [2] [%] | efficacy (Myzus persicae) [%] | efficacy (Tetranychus urticae; 100 g/ha) [%] | efficacy (kill) (Musca domestica; 20 ppm) [%]
5 | COc1nccnc1-n1nc(C(F)(F)F)c(-c2cc(Br)c3c(c2)OCCCO3)c1N [Ex. 131] | 3.32* |  | 100 | 100 | 100 | 100 | 100 | 100 | 100 |  |  |  | 
6 | COc1nccnc1-n1nc(C(F)(F)F)c(-c2ccc(Cl)c(C(F)(F)F)c2)c1N [Ex. 18] | 3.94* |  | 83 | 100 | 100 |  | 100 | 100 |  | 100 | 90 |  | 
7 | COc1nccnc1-n1nc(C(F)(F)F)c(-c2cc(Br)c3c(c2)OCCO3)c1N [Ex. 132] | 3.09* |  | 100 | 100 | 100 | 100 | 80 | 100 | 80 | 100 |  |  | 
8 | C=Cc1nn(-c2nccnc2OC)c(N)c1-c1cc(Cl)cc(Cl)c1 [Ex. 8] | 3.51* |  |  |  | 100 |  |  | 100 |  | 90 | 100 |  | 
9 | COc1nccnc1-n1nc(C(F)(F)F)c(-c2cc(Cl)c3c(c2)OCCO3)c1N [Ex. 133] | 3.02* |  | 100 | 100 | 100 | 100 |  | 100 |  | 95 |  | 90 | 80
10 | COc1nccnc1-n1nc(C(C)(F)F)c(-c2ccc(Cl)c(C(F)(F)F)c2)c1N [Ex. 20] | 3.74* |  | 100 | 100 | 100 |  | 100 | 100 |  | 100 | 100 |  | 
11 | COc1cc(-c2c(C(F)(F)F)nn(-c3nccnc3OC)c2N)cc(C(F)(F)F)c1 [compound 26, 1-(3-methoxypyrazin-2-yl)-4-[3-methoxy-5-(trifluoromethyl)phenyl]-3-(trifluoromethyl)-1H-pyrazol-5-amine] |  | 3.63 | 83 | 100 | 100 | 95 | 100 | 100 |  | 90 |  |  | 

From patent US20120190687A1, “Pyrazinylpyrazoles” (Bayer CropScience Ag, priority 2009, published 2012)
